Assay [1] concerns tissue of medial septum nuclei. The assay can be described thus: acetylcholine synthesis activity of cultured medial septum nucleus tissue (method of Ojika et al.). The format is cell-based. The settings on record: human-derived HCNP peptide compared with rat-derived HCNP. An excerpt: The neurotrophic activity (also called neurotrophic factor activity) refers to, for example, an action of regulating differentiation and maturation of neuronal cells, namely, an action of accelerating the acetylcholine synthesis in the tissue of medial septum nuclei which is rich in cholinergic neurons.
The human-derived neurotrophic peptide or its derivatives of the present invention can regulate differentiation and maturation of neuronal cells. That is, the neurotrophic peptide and derivatives thereof accelerate the acetylcholine synthesis in the tissue of medial septum nuclei. The biological activity can be determined by the method of Ojika, K., et a. (Reference 66).
Medial septal nucleus was extracted from the brains of 16-day-old SD rat embryos and microscopically dissected into small pieces. […]
Except in the experiment for the study of sequential growth, the cultured tissue on the 9th day was washed with a Tris-HCl (pH 7.4) buffered Tyrode's solution, followed by preincubation in a high-K (55 mM KCl) Tyrode's solution, and then incubation in a Tyrode's solution containing ^3 H-choline chloride at 37° C. for 30 minutes. […] The choline uptake and Ach-productivity were expressed as amounts per one piece of cultured tissue. Choline acetyl-transferase (CATase) was measured using ^14 C-acetyl-CoA, according to the method of Fonnum, biochemical Journal, 115, 465-472 (1969). […]

The subject of assay [2] is tissue of medial septum nuclei. Particulars: rat medial septum nuclei acetylcholinergic neuron; Reference 1; cited from earlier work.

As to “H-PVDLSKWSGPL-OH [hHCNP, H-Pro-Val-Asp-Leu-Ser-Lys-Trp-Ser-Gly-Pro-Leu-OH]”, in assay [1], the “neurotrophic activity (acceleration of acetylcholine synthesis)” value is on record as “neurotrophic activity similar to rat-derived HCNP was noted”.

On to “HCNP: hippocampal cholinergic neurotrophic peptide composed of 11 amino acid residues isolated from hippocampal tissue of neonatal rat (AADISQWAGPL)”, for which the production of acetylcholine entry in assay [2] was “enhances production of acetylcholine”.

Values taken from patent US5759991A, “Neurotrophic peptide derivatives” (Sumitomo Pharmaceutical Company, Limited., priority 1991, dated 1998).
